These results are taken from ChEMBL document CHEMBL1138590, “Discovery of novel dihydro-9,10-ethano-anthracene carboxamides as glucocorticoid receptor modulators” (Bioorg Med Chem Lett, 2009).

The target in experiment [1] is T1, Glucocorticoid receptor (Homo sapiens, UniProt P04150).
T1 sequence (P04150 whole entry): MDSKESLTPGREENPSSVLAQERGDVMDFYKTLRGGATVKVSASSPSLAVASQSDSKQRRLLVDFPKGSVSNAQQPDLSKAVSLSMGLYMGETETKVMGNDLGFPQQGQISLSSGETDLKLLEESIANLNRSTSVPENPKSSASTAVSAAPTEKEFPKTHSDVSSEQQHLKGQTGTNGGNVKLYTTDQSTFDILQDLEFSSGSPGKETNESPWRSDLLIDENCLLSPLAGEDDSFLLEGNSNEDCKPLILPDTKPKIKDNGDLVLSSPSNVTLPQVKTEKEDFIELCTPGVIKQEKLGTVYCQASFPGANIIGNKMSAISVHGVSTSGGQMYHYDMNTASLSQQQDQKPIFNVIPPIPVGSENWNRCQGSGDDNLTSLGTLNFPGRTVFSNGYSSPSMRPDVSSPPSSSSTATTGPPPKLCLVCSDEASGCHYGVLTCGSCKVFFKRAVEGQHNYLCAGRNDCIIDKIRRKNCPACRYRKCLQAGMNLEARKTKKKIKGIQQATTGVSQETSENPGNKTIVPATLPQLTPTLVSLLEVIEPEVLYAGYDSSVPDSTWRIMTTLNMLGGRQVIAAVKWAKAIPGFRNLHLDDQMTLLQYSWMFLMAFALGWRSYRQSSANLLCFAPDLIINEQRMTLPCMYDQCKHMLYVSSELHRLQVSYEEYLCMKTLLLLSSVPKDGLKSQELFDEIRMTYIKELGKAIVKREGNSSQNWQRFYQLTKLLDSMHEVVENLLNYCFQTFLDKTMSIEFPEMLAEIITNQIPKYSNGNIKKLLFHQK
Nature of the experiment: Displacement of FITC-dexamethasone from human recombinant glucocorticoid receptor alpha by fluorescence polarization assay. A general note: Fluorescence polarisation rises when a labelled molecule tumbles more slowly, as on binding a larger partner.

Experiment [2] concerns the target T1, Glucocorticoid receptor. Nature of the experiment: Transrepression activity at GR in PMA-stimulated human A549 cells assessed as inhibition of AP1 response element-induced luciferase reporter gene activity. Format: cell-based. (A reporter such as luciferase makes a cellular process visible.)
For experiment [3], the target named is T2, Mineralocorticoid receptor (Homo sapiens) (UniProt P08235).
T2 sequence (whole entry): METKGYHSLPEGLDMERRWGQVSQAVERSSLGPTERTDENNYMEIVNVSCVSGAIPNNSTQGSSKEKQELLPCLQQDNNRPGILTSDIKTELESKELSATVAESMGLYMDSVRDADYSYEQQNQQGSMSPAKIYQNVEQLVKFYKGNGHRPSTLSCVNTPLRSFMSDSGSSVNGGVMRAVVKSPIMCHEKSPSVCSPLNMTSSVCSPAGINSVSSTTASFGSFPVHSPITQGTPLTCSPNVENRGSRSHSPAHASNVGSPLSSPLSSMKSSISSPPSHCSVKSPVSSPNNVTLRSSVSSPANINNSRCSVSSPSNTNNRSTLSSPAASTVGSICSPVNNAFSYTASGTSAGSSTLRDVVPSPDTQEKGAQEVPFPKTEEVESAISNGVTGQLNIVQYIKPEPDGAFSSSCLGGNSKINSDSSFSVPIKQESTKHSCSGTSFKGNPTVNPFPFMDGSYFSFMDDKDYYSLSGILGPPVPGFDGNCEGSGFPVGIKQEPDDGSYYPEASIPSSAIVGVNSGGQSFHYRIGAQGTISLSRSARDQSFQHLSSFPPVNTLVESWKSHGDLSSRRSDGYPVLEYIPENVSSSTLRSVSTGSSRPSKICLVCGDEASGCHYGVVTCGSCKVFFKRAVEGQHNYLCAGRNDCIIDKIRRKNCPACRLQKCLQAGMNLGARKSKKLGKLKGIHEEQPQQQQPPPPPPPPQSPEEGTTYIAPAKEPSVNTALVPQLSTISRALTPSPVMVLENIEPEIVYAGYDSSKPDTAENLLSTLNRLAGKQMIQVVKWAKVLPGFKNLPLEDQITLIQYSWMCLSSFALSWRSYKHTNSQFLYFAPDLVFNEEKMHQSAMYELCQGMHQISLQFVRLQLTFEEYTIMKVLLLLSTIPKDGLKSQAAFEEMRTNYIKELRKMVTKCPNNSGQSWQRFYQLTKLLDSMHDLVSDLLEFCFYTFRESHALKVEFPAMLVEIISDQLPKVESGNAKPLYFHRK
Nature of the experiment: Antagonist activity at mineralocorticoid receptor in human A549 cells assessed as inhibition of 1.25 nM aldosterone-induced effect at 0.1 uM. In kind it is functional, cell-based.

Another experiment concerns the target T3, Androgen receptor (Homo sapiens, UniProt P10275).
T3 sequence (P10275 whole entry): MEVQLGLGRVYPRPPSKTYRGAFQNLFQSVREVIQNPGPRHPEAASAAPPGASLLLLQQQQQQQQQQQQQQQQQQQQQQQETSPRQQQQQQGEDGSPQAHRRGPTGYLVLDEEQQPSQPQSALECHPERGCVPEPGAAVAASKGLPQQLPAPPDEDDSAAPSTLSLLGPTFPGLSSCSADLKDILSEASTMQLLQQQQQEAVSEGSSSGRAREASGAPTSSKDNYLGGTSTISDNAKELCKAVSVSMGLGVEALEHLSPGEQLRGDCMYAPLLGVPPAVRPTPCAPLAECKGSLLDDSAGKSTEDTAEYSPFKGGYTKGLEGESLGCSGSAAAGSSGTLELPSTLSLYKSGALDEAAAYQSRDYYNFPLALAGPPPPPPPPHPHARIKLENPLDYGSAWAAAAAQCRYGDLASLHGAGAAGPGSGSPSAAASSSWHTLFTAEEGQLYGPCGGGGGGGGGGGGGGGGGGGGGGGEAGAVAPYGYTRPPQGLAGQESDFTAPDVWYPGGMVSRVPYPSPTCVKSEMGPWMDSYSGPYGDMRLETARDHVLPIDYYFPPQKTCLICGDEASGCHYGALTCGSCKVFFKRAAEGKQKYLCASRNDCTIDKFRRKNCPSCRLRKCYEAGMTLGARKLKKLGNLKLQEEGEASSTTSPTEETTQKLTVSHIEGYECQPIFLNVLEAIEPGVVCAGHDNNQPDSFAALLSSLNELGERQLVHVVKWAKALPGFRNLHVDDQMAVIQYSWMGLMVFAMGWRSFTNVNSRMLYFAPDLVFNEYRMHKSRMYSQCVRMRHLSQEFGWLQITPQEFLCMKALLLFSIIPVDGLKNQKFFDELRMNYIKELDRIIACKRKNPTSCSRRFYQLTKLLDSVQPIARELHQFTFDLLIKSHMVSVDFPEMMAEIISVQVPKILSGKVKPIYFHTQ
Nature of the experiment: Displacement of fluorescently labeled ligand from androgen receptor by fluorescence polarization assay.

For the molecule `C[C@@]1(C(=O)Nc2nccs2)CC2c3ccccc3C1c1ccccc12`, the inhibitory constant (Ki) was found to be 1.3 nM at Glucocorticoid receptor [1] and 7400 nM at Androgen receptor. In addition, the concentration for a half-maximal effect (EC50) on Glucocorticoid receptor [2] turned out to be 115 nM. For the same molecule, the inhibition in experiment [3] came out at 3%.

Take `C[C@@]1(C(=O)Nc2nccs2)CC2(C#N)c3ccccc3C1c1ccccc12`: the Ki is 0.9 nM at Glucocorticoid receptor [1] and more than 10000 nM at Androgen receptor. In addition, the 50% effective concentration (EC50) on Glucocorticoid receptor [2] stood at 243 nM. In addition, the inhibition in experiment [3] was 47%.

Broadly, the Ki is the equilibrium dissociation constant of an inhibitor or competing ligand from its target. The EC50 is the concentration that produces a half-maximal response. What is called inhibition is the share of the control response that was lost under treatment.
